Where two headings read alike, the source gives them in different places.
What was measured:
Format in all cases: in vivo
[1] = system: Viola tricolor (VIOTR); assay: Pre-emergence herbicidal action against VIOTR
Excerpt: (§1) Seeds of monocotyledonous and dicotyledonous weed plants and crop plants are placed in plastic or organic planting pots and covered with soil. The compounds of the invention, formulated in the form of wettable powders (WP) or as emulsion concentrates (EC), are then applied to the surface of the covering soil as aqueous suspension or emulsion with addition of 0.5% additive at a water application rate equivalent to 600 l/ha. After the treatment, the pots are placed in a greenhouse and kept under good growth conditions for the trial plants. After about 3 weeks, the effect of the preparations is scored visually in comparison with untreated controls as percentages. For example, 100% activity=the plants have died, 0% activity=like control plants.
(§2) Tables A1 to A13 below show the effects of selected compounds of the general formula (I) on various harmful plants and at an application rate corresponding to 320 g/ha or lower, which were obtained by the experimental procedure mentioned above. The appendices “a”, “b” and “c” give differentiation by dosage used with otherwise the same harmful plants tested.

[2] = system: Polygonum convolvulus (POLCO); assay: Pre-emergence herbicidal action against POLCO
Excerpt: as §1, §2

[3] = system: Zea mays (ZEAMX)
Description: (§3) Seeds of monocotyledonous and dicotyledonous weeds and crop plants are placed in sandy loam in plastic or organic planting pots, covered with soil and cultivated in a greenhouse under controlled growth conditions. 2 to 3 weeks after sowing, the test plants are treated at the one-leaf stage. The compounds of the invention, formulated in the form of wettable powders (WP) or as emulsion concentrates (EC), are then sprayed onto the green parts of the plants as aqueous suspension or emulsion with addition of 0.5% additive at a water application rate of 600 l/ha (converted). After the test plants have been kept in the greenhouse under optimum growth conditions for about 3 weeks, the activity of the preparations is rated visually in comparison to untreated controls. For example, 100% activity=the plants have died, 0% activity=like control plants.
(§4) The observed effects on selected crop plants are reported here in comparison to the untreated controls (values in %). The appendices “a”, “b” and “c” give differentiation by dosage used with otherwise the same crop plants tested.

[4] = system: Oryza sativa (ORYSA); settings: crop plant compatibility
Description: as §3, §4

[5] = system: Amaranthus retroflexus (AMARE); assay: Post-emergence herbicidal action against AMARE
Description: as §3
(§5) Tables B1 to B13 below show the effects of selected compounds of the general formula (I) according to Table 1 on various harmful plants and at an application rate corresponding to 320 g/ha or lower, which were obtained by the experimental procedure mentioned above. The appendices “a”, “b” and “c” give differentiation by dosage used with otherwise the same harmful plants tested.

[6] = system: Abutilon theophrasti (ABUTH); assay: Post-emergence herbicidal action against ABUTH; settings: visual rating about 3 weeks after treatment vs untreated controls (100% = plants have died, 0% = like control plants)
Description: as §3, §5

[7] = system: Amaranthus retroflexus (AMARE); assay: Pre-emergence herbicidal action against AMARE; settings: visual scoring after about 3 weeks vs untreated controls
Excerpt: as §1, §2

[8] = system: Avena fatua (AVEFA); assay: Post-emergence herbicidal action against AVEFA; settings: visual rating about 3 weeks after treatment
Description: as §3, §5

[9] = system: Polygonum convolvulus (POLCO); assay: Post-emergence herbicidal action against POLCO
Description: as §3, §5

[10] = system: Setaria viridis (SETVI); assay: Pre-emergence herbicidal action against SETVI
Excerpt: as §1, §2

[11] = system: Alopecurus myosuroides (ALOMY); assay: Post-emergence herbicidal action against ALOMY; settings: visual rating about 3 weeks after treatment vs untreated controls (100% = plants have died, 0% = like control plants)
Description: as §3, §5

[12] = system: Lolium rigidum (LOLRI); assay: Pre-emergence herbicidal action against LOLRI
Excerpt: as §1, §2

[13] = system: Avena fatua (AVEFA); assay: Pre-emergence herbicidal action against AVEFA; settings: 320 g/ha, visual scoring after about 3 weeks vs untreated controls
Excerpt: as §1, §2

[14] = system: Pharbitis purpurea (PHBPU); assay: Pre-emergence herbicidal action against PHBPU; settings: dosage 320 g/ha
Excerpt: as §1, §2

[15] = system: Lolium rigidum (LOLRI); assay: Post-emergence herbicidal action against LOLRI
Description: as §3, §5

[16] = system: Verconica persica (VERPE); assay: Pre-emergence herbicidal action against VERPE
Excerpt: as §1, §2

[17] = system: Alopecurus myosuroides (ALOMY); assay: Pre-emergence herbicidal action against ALOMY; settings: scored visually after about 3 weeks, 100% = plants have died
Excerpt: as §1, §2

[18] = system: Echinochloa crus-galli (ECHCG); assay: Post-emergence herbicidal action against ECHCG
Description: as §3, §5

[19] = system: Setaria viridis (SETVI); assay: Post-emergence herbicidal action against SETVI
Description: as §3, §5

[20] = system: Viola tricolor (VIOTR); assay: Post-emergence herbicidal action against VIOTR
Description: as §3, §5

[21] = system: Verconica persica (VERPE); assay: Post-emergence herbicidal action against VERPE; settings: 320 g/ha, VERPE
Description: as §3, §5

[22] = system: Echinochloa crus-galli (ECHCG); assay: Pre-emergence herbicidal action against ECHCG
Excerpt: as §1, §2

[23] = system: Matricaria inodora (MATIN); assay: Pre-emergence herbicidal action against MATIN; settings: dosage 320 g/ha
Excerpt: as §1, §2

[24] = 80 g/ha, effect in comparison to untreated controls
[25] = 80 g/ha, visual rating about 3 weeks after treatment vs untreated controls (100% = plants have died, 0% = like control plants)

Row | SMILES | Pre-emergence action against VIOTR in % ([1]; 320 g/ha, Viola tricolor) | Pre-emergence action against VIOTR in % ([1]; dosage 80 g/ha) | Pre-emergence action against POLCO in % ([2]; dosage 320 g/ha) | Post-emergence action against ORYSA in % [4, 24] | Post-emergence action against AMARE in % [5, 25] | Pre-emergence action against AMARE in % ([7]; 80 g/ha) | Pre-emergence action against AMARE in % ([7]; 320 g/ha) | Post-emergence action against AVEFA in % ([8]; 80 g/ha) | Post-emergence action against POLCO in % ([9]; dosage 80 g/ha) | Pre-emergence action against SETVI in % ([10]; dosage 80 g/ha) | Pre-emergence action against SETVI in % ([10]; dosage 320 g/ha) | Pre-emergence action against LOLRI in % ([12]; dosage 80 g/ha) | Pre-emergence action against LOLRI in % ([12]; dosage 320 g/ha) | Pre-emergence action against AVEFA in % [13] | Pre-emergence action against PHBPU in % [14] | Post-emergence action against LOLRI in % ([15]; dosage 80 g/ha) | Pre-emergence action against VERPE in % ([16]; dosage 320 g/ha) | Pre-emergence action against ALOMY ([17]; 80 g/ha) | Pre-emergence action against ALOMY ([17]; 320 g/ha) | other results
1 | CCOC(=O)C(C)Oc1nn(-c2ccccn2)c(-c2ccc(F)nc2)c1Br (centres unmarked) [Example I-102] | 100% | 90% | 90% | 0% | 80% | 80% | 90% | 90% | 90% | 90% | 100% | 80% | 100% | 90% | 80% | 90% | 80% | 100% | 100% | Post-emergence action against ZEAMX in % (crop plant compatibility) ([3]; 20 g/ha, ZEAMX, effect in comparison to untreated controls): 0%; Post-emergence action against ZEAMX in % ([3]; crop plant compatibility, 80 g/ha, effect vs untreated controls): 20%; Post-emergence action against ORYSA in % ([4]; 20 g/ha, effect vs untreated controls): 0%; Post-emergence action against ABUTH in % ([6]; 80 g/ha): 80%; Post-emergence action against ALOMY in % ([11]; 80 g/ha): 90%
2 | CC(NC(=O)[C@@H](C)Oc1nn(-c2ccccn2)c(-c2ccc(F)nc2)c1Cl)C(=O)O (some centres unmarked) [Example I-350] | 100% | 100% | 90% | 0% | 90% | 100% | 100% | 90% | 80% | 100% | 100% | 100% | 100% | 100% | 80% | 80% | 100% | 100% | 100% | Post-emergence action against ECHCG in % ([18]; dosage 80 g/ha): 80%; Post-emergence action against ECHCG in % ([18]; dosage 320 g/ha): 90%; Pre-emergence action against POLCO in % ([2]; dosage 80 g/ha): 90%; Post-emergence action against ORYSA in % ([4]; 320 g/ha, effect in comparison to untreated controls): 10%; Post-emergence action against AMARE in % ([5]; 320 g/ha, visual rating about 3 weeks after treatment): 90%; Post-emergence action against ABUTH in % ([6]; 320 g/ha): 90%; Post-emergence action against AVEFA in % ([8]; 320 g/ha): 90%; Post-emergence action against POLCO in % ([9]; dosage 320 g/ha): 90%; Post-emergence action against SETVI in % ([19]; dosage 80 g/ha): 80%; Post-emergence action against SETVI in % ([19]; dosage 320 g/ha): 90%; Post-emergence action against ALOMY in % ([11]; 320 g/ha): 90%; Post-emergence action against VIOTR in % ([20]; 80 g/ha): 90%; Post-emergence action against VIOTR in % ([20]; 320 g/ha): 90%; Post-emergence action against VERPE in % [21]: 90%; Post-emergence action against LOLRI in % ([15]; dosage 320 g/ha): 90%; Pre-emergence action against ECHCG in % ([22]; dosage 80 g/ha): 100%; Pre-emergence action against ECHCG in % ([22]; dosage 320 g/ha): 100%; Pre-emergence action against VERPE in % ([16]; dosage 80 g/ha): 90%; Pre-emergence action against MATIN in % [23]: 90%

Source: US20240041042A1, “1-(PYRIDYL)-5-AZINYLPYRAZOLE DERIVATIVES, AND THEIR USE FOR CONTROL OF UNDESIRED PLANT GROWTH” (Bayer Aktiengesellschaft, priority 2020, published 2024)
